Assay results as given in paper PMC4207410, “Clicked Cinnamic/Caffeic Esters and Amides as Radical Scavengers and 5-Lipoxygenase Inhibitors” (International Journal of Medicinal Chemistry, 2014).

Key:
[1] = Antiradical activity assay (DPPH radical scavenging); conditions: DPPH in ethanol, 30 min in the dark at room temperature, absorbance 520 nm; mean [SD] of 2 experiments
Experimental: The radical scavenging activity of test compounds was measured as previously described using 2,2-diphenyl-1-picrylhydrazyl (DPPH) as a stable radical with slight modifications. Particular care was taken in the preparation of the control (DPPH reagent + ethanol as a diluent without test compounds). Controls with O.D. of 0.350-0.360 at 520 nm were deemed as acceptable to avoid variations in IC50 calculations. 1 mL of DPPH in ethanol ([…]) was mixed with 1 mL of the test compounds at the indicated concentrations or their diluent (ethanol). Each mixture was then shaken vigorously and held in the dark for 30 min at room temperature. The absorbance of DPPH at 520 nm was then measured. The radical scavenging activity was expressed in terms of % inhibition of DPPH absorbance: (1) % Inhibition=[(Acontrol−Atest)/(Acontrol)] ×100, where A control is the absorbance of the control (DPPH solution without test compound) and A test is the absorbance of the test sample (DPPH solution plus compound). Data are expressed as means ± SD of 2 independent experiments, each performed in triplicate (Table 1). IC50 values were calculated from a sigmoidal concentration-response curve fitting model with a variable slope on GraphPad Prism 5 software (GraphPad software, San Diego, California).
Radical scavenging activities of analogous cinnamoyl esters 8a–h, cinnamoyl amides 9a–h, caffeoyl esters 15a–h, and caffeoyl amides 16a–h were assayed using 2,2-diphenyl-1-picrylhydrazyl (DPPH) as a stable radical and are expressed as IC50 concentrations in Table 1.

[2] = target: T1, 5-LO (Homo sapiens, UniProt P09917); assay: 5-LO products biosynthesis assay in thapsigargin-stimulated human PMNL; type: cell-based; set-up: 5-LO is highly expressed in PMNL; endogenous in cells; host or cells: human PMNL from peripheral blood; conditions: for potency relative to Zileuton (1) in human PMNL: comparison of IC50 values, thapsigargin-stimulated human PMNL; for IC50: read-out: Human PMNL IC50 (μM) [SD]
T1 sequence (P09917 1-674): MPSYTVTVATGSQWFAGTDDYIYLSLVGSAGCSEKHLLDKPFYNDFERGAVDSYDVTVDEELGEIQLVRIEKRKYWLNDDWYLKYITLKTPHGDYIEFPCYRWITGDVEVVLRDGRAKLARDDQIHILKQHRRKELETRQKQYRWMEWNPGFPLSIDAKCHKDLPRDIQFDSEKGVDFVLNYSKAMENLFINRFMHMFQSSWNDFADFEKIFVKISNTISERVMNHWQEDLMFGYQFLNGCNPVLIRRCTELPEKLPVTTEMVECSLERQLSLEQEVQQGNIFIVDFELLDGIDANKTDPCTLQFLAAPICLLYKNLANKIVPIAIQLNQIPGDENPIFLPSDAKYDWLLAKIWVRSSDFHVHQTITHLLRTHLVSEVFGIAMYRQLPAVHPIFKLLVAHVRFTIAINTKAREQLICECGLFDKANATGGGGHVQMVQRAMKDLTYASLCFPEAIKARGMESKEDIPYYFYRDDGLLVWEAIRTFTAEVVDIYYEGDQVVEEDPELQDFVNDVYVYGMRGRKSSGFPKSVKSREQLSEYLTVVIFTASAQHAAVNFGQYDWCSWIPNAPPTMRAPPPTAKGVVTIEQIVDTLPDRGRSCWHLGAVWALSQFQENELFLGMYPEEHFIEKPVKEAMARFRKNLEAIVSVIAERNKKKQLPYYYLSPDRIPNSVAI
Experimental: Human PMNL were prepared from peripheral blood as described and were suspended in HBSS containing 1.6 mM CaCl2 (10^7 cells/mL) and preincubated with compounds for 5 min at 37°C in the presence of 1 U/mL of adenosine deaminase (Sigma-Aldrich, Oakville, ON, Canada). Cells were then stimulated for 15 min at 37°C with 1 μM thapsigargin (Sigma-Aldrich). Reactions were stopped by the addition of 0.5 volume of cold MeOH : CH3CN (1 : 1) and 50 ng of PGB2 as internal standard and samples were stored at −20°C until processing on octadecyl (C18) columns and RP-HPLC analysis as indicated above. Data are expressed as means ± SEM of 3 independent experiments, each performed in duplicate (Figures 4 and 5).
5-LO is highly expressed in PMNL and these cells are important producers of LTB4 [28, 32].

[3] = target: T1, 5-LO; assay: 5-LO products biosynthesis assay in whole HEK293 cells stably transfected with 5-LO and FLAP; type: cell-based; set-up: expressed in transfected cells; conditions: for potency relative to Zileuton (1) in HEK293 cells: comparison of IC50 values
From the text: HEK293 cells were cotransfected with a pcDNA3.1 vector expressing 5-LO and a pBUDCE4.1 vector expressing 5-LO activating protein (FLAP) using Polyfect reagent (QIAGEN, Mississauga, ON, Canada) according to the manufacturer's protocol. Stable transfections of HEK293 cells were obtained following cell culture in the presence of Geneticin and Zeocin (Invitrogen, Burlington, ON, Canada). The resulting stable double transfectants were propagated in culture and aliquots were frozen. Once thawed for a series of experiments, each aliquot of cells is cultured for a maximum of 6 weeks before being discarded.
For cell stimulation of 5-LO products, transfected HEK293 cells were collected following trypsinization, washed and the cell pellet was resuspended in Hank's balanced salt solution (HBSS) (Lonza, Walkersville, MD) containing 1.6 mM CaCl2 at a concentration of 5 × 10^5 cells mL^−1. Cells were preincubated with each compound at the indicated concentration for 5 min at 37°C. Cells were then stimulated for 15 minutes at 37°C with the addition of 10 μM calcium ionophore A23187 (Sigma-Aldrich, Oakville, ON, Canada) and 10 μM arachidonic acid (Cayman Chemical, Ann Arbor, MI). Stimulations were stopped and processed on RP-HPLC as described previously. Data are expressed as means ± SEM of 3 independent experiments, each performed in duplicate (Figures 2 and 3).

melting point | IC50 [1] [µM] | SMILES | also measured
168 to 169 °C | 11.2 | O=C(/C=C/c1ccc(O)c(O)c1)NCCn1cc(C2=CCCCC2)nn1 [16d] | –
220 °C (dec.) | 13 | Cc1ccc(-c2cn(CCNC(=O)/C=C/c3ccc(O)c(O)c3)nn2)cc1 [16f] | potency relative to Zileuton (1) in human PMNL [2]: less active than Zileuton; IC50 [2]: 8.2 µM; potency relative to Zileuton (1) in HEK293 cells [3]: equipotent to Zileuton; 5-LO inhibition in whole HEK293 cells (in words) ([3]; whole HEK293 cells, 1 μM): no significant 5-LO inhibitory activity
134 to 135 °C | – | O=C(C=Cc1ccccc1)OCCn1cc(-c2ccc(F)cc2)nn1 [8g] | –
238 to 240 °C (dec.) | 9.4 | O=C(/C=C/c1ccc(O)c(O)c1)OCCn1cc(-c2ccc(F)cc2)nn1 [15g] | potency relative to Zileuton (1) in human PMNL [2]: equivalent to Zileuton; IC50 [2]: 3.3 µM; potency relative to Zileuton (1) in HEK293 cells [3]: four times more potent than Zileuton
181 to 182 °C (dec.) | 9.01 | Cc1ccc(-c2cn(CCOC(=O)/C=C/c3ccc(O)c(O)c3)nn2)cc1 [15f] | potency relative to Zileuton (1) in human PMNL [2]: equivalent to Zileuton; IC50 [2]: 3.1 µM; 5-LO inhibition in stimulated human PMNL (in words) ([2]; stimulated human PMNL, 1 μM): roughly equipotent with Zileuton; potency relative to Zileuton (1) in HEK293 cells [3]: four times more potent than Zileuton
200 to 201 °C | – | O=Cc1ccc(-c2cn(CCNC(=O)C=Cc3ccccc3)nn2)cc1 [9h] | –
119 °C | – | O=C(C=Cc1ccccc1)OCCn1cc(C2CCCCC2)nn1 [8c] | –
191 °C (dec.) | 9.3 | O=C(/C=C/c1ccc(O)c(O)c1)OCCn1cc(C2CCCCC2)nn1 [15c] | –
122 to 123 °C | – | O=C(C=Cc1ccccc1)OCCn1cc(-c2ccccc2)nn1 [8e] | –
193 to 195 °C (dec.) | 15.1 | O=C(/C=C/c1ccc(O)c(O)c1)OCCn1cc(-c2ccccc2)nn1 [15e] | –
171 to 173 °C | – | O=C(C=Cc1ccccc1)NCCn1cc(-c2ccccc2)nn1 [9e] | –
196 to 198 °C (dec.) | 9.55 | O=C(/C=C/c1ccc(O)c(O)c1)OCCn1ccnn1 [15a, (E)-2-(1H-1,2,3-Triazol-1-yl)ethyl 3-(3,4-Dihydroxyphenyl)acrylate] | 5-LO inhibition in stimulated human PMNL (in words) ([2]; stimulated human PMNL, 1 μM): complete loss of inhibition
208 °C | – | Cc1ccc(-c2cn(CCNC(=O)C=Cc3ccccc3)nn2)cc1 [9f] | –
163 to 165 °C | 12.1 | CCCc1cn(CCNC(=O)/C=C/c2ccc(O)c(O)c2)nn1 [16b] | –
163 to 165 °C | 15.4 | O=C(/C=C/c1ccc(O)c(O)c1)NCCn1ccnn1 [16a] | –
228 to 230 °C (dec.) | 18.1 | O=Cc1ccc(-c2cn(CCNC(=O)/C=C/c3ccc(O)c(O)c3)nn2)cc1 [16h] | –
139 to 140 °C | – | Cc1ccc(-c2cn(CCOC(=O)C=Cc3ccccc3)nn2)cc1 [8f] | –
208 °C (dec.) | 10.5 | O=C(/C=C/c1ccc(O)c(O)c1)NCCn1cc(-c2ccccc2)nn1 [16e] | –

melting point | IC50 [1] [µM] | SMILES | also measured
159 to 161 °C | – | O=C(C=Cc1ccccc1)NCCn1cc(C2CCCCC2)nn1 [9c] | –
220 to 230 °C (dec.) | 8.85 | O=Cc1ccc(-c2cn(CCOC(=O)/C=C/c3ccc(O)c(O)c3)nn2)cc1 [15h] | 5-LO inhibition in stimulated human PMNL (in words) ([2]; stimulated human PMNL, 1 μM): roughly equipotent with Zileuton
193 to 196 °C | – | O=C(C=Cc1ccccc1)NCCn1cc(-c2ccc(F)cc2)nn1 [9g] | –
– | 12 | O=C(/C=C/c1ccc(O)c(O)c1)OCCn1cc(COC(=O)/C=C/c2ccccc2)nn1 [compound 3, reference compound] | 5-LO inhibition in stimulated human PMNL (in words) ([2]; stimulated human PMNL, 1 μM): roughly equipotent with Zileuton
63 to 64 °C | – | CCCc1cn(CCOC(=O)C=Cc2ccccc2)nn1 [8b, 2-(4-Propyl-1H-1,2,3-triazol-1-yl)ethyl Cinnamate] | –
– | 16.5 | O=C(/C=C/c1ccc(O)c(O)c1)OCCc1ccccc1 [CAPE 2, caffeic acid phenethyl ester, reference compound] | inhibition at 1 µM ([2]; read-out: inhibition of 5-LO, stimulated human PMNL, 1 μM): ~75%; 5-LO products synthesis, % of the control value ([3]; whole HEK293 cells, 1 μM): roughly 50%; inhibition at 1 µM ([3]; whole HEK293 cells, 1 μM, read-out: inhibition of LTs biosynthesis): ~50%
99 to 100 °C | – | O=C(C=Cc1ccccc1)OCCn1ccnn1 [8a, 2-(1H-1,2,3-Triazol-1-yl)ethyl Cinnamate] | –
– | > 100 | CC(c1cc2ccccc2s1)N(O)C(N)=O (stereo not drawn) [Zileuton 1, Zileuton, reference compound] | 5-LO inhibition in whole HEK293 cells (in words) ([3]; whole HEK293 cells, 1 μM): little to no activity; inhibition at 10 µM ([3]; whole HEK293 cells, 10 μM (not shown)): ~25%
170 to 171 °C | – | O=C(C=Cc1ccccc1)NCCn1cc(C2=CCCCC2)nn1 [9d] | –
226 °C (dec.) | 12 | O=C(/C=C/c1ccc(O)c(O)c1)NCCn1cc(-c2ccc(F)cc2)nn1 [16g] | potency relative to Zileuton (1) in human PMNL [2]: less active than Zileuton; IC50 [2]: 8.8 µM; potency relative to Zileuton (1) in HEK293 cells [3]: equipotent to Zileuton; 5-LO inhibition in whole HEK293 cells (in words) ([3]; whole HEK293 cells, 1 μM): no significant 5-LO inhibitory activity
183 to 184 °C | 9.87 | O=C(/C=C/c1ccc(O)c(O)c1)NCCn1cc(C2CCCCC2)nn1 [16c] | –
– | 75.4 | O=C1O[C@H]([C@@H](O)CO)C(O)=C1O [Ascorbic acid, reference compound] | –
127 to 128 °C | – | O=Cc1ccc(-c2cn(CCOC(=O)C=Cc3ccccc3)nn2)cc1 [8h] | –
101 to 103 °C | – | O=C(C=Cc1ccccc1)OCCn1cc(C2=CCCCC2)nn1 [8d] | –
180 to 181 °C (dec.) | 9.37 | CCCc1cn(CCOC(=O)/C=C/c2ccc(O)c(O)c2)nn1 [15b] | –
219 to 220 °C (dec.) | 8.7 | O=C(/C=C/c1ccc(O)c(O)c1)OCCn1cc(C2=CCCCC2)nn1 [15d] | 5-LO inhibition in stimulated human PMNL (in words) ([2]; stimulated human PMNL, 1 μM): roughly equipotent with Zileuton
140 to 141 °C | – | O=C(C=Cc1ccccc1)NCCn1ccnn1 [9a] | –
